The record followed here is patent publication US20240382471A1, “GLUCAGON-LIKE PEPTIDE-1 RECEPTOR MODULATORS AND USES THEREOF” (HEPAGENE THERAPEUTICS (HK) LIMITED, priority 2021, published 2024).

Structures are written as SMILES.

Assay [1] concerns the target T1, GLP1R (Homo sapiens, UniProt P43220). In words: GLP1R/CRE-Luc luciferase reporter gene assay (agonist activity). The assay is classed as cell-based. Set-up: host or cells: HKE293 (so in the source). The following applies: HKE293-Human GLP1R/CRE-luc cells, 5 h at 37° C., read-out: EC50 (nM) Assay 2. The protocol:
GLP1R-mediated agonist activity was determined with a cell-based functional assay utilizing a britelite plus luciferase reporter gene assay system. The stable cell line overexpress GLP1R and target response element. The stimulation with GLP1R agonist results in the upregulation of intracellular cAMP, which regulate the activities of cAMP-response element binding protein (CREB) and CREB-Luc. Reagents and equipment used in the assay are listed below, followed by the protocol.
• 1) Cell Line: HKE293-Human GLP1R/CRE-luc • 2) Complete Medium: DMEM+10% FBS+1×Penicillin-Streptomycin+400 μg/mL G418
• a) Seed HKE293-Human GLP1R/CRE-luc cells at 20,000 cells/well into 384 well assay plate (6007680-50, PE) using complete medium and incubate overnight. • b) Prepare 6×compound working solution with Medium. • c) Add 5 μL 6×compound working solution into cell plate, incubate 5 h at 37° C. • d) Add 20 μl britelite plus Luciferase Assay Reagent into each well of 384-well assay plate. • e) Record the luminescence value on Envision plate reader.
• 3.1% Activity is calculated as follow:
% Activity=(Signalcmpd−SignalAve_VC)/(SignalAve_PC−SignalAve_VC)×100. • 3.2 Calculate EC50 and Plot effect-dose curve of cmpds:
Y=Bottom+(Top−Bottom)/(1+10^((Log EC50−X)*HillSlope)) • X: log of agonist concentration; Y: % Activity.
Background: A reporter such as luciferase makes a cellular process visible.
Target sequence in this assay (P43220 24-463): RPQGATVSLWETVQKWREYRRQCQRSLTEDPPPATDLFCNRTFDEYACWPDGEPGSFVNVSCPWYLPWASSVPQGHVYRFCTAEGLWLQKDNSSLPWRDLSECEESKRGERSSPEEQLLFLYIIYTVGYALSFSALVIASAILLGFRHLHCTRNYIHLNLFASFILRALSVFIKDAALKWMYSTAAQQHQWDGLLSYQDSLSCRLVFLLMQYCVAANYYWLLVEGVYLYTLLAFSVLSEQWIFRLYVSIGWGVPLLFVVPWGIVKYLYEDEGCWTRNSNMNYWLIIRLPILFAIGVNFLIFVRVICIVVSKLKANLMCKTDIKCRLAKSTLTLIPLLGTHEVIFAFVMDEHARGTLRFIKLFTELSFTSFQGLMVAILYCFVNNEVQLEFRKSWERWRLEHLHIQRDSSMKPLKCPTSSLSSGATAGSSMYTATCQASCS

For assay [2], the target named is T1, GLP1R. Briefly: GLP1R cAMP assay (HTRF cAMP detection, agonist activity). The note with it: Flp-In-293-GLP1R cells, 30 min at 37° C., read-out: EC50 (nM) Assay 1. The class given is cell-based. The arrangement: host or cells: Flp-In-293. On the technique in general: Changes in cAMP serve as a functional read-out for many G protein-coupled receptors.
Target sequence in this assay (P43220 24-463, species assumed): as the sequence (P43220 24-463) above

By EC50 is commonly meant the concentration that produces a half-maximal response. Consider `N#Cc1ccc(COc2cccc(C34CCN(Cc5nc6c(F)cc(C(=O)O)cc6n5C[C@@H]5CCO5)CC3C4)n2)c(F)c1` (stereo partly drawn) [Compound 1-10, 2-((6-(6-((4-cyano-2-fluorobenzyl)oxy)pyridin-2-yl)-3-azabicyclo[4.1.0]heptan-3-yl)methyl)-4-fluoro-1-(((S)-oxetan-2-yl)methyl)-1H-benzo[d]imidazole-6-carboxylic acid], for which the EC50 in assay [1] came to 31.2 nM; in assay [2], 0.047 nM.
In the case of `N#Cc1ccc(COc2cccc(C34CCN(Cc5nc6ccc(C(=O)O)cc6n5C[C@@H]5CCO5)CC3C4)n2)c(F)c1` (single isomer, unassigned) [Compound 1-1-B], the EC50 in assay [1] stood at 84.9 nM; in assay [2] it was 0.035 nM.
`N#Cc1ccc(COc2cccc(C34CCN(Cc5nc6ccc(C(=O)O)cc6n5C[C@@H]5CCO5)CC3C4)n2)c(F)c1` (single isomer, unassigned) [Compound 1-1-A]: the results for the EC50 in assay [1] and in assay [2] were 48.7 nM and 0.028 nM, respectively.
Consider `N#Cc1ccc(COc2cccc(N3C4CCC3CN(Cc3nc5ccc(C(=O)O)cc5n3C[C@@H]3CCO3)C4)n2)c(F)c1` [Compound 2-29, 2-((−8-(6-((4-cyano-2-fluorobenzyl)oxy)pyridin-2-yl)-3,8-diazabicyclo[3.2.1]octan-3-yl)methyl)-1-(((S)-oxetan-2-yl)methyl)-1H-benzo[d]imidazole-6-carboxylic acid], for which the EC50 is over 1000 nM in assay [1] and 0.287 nM in assay [2].
Regarding `COc1cc(C#N)ccc1COc1cccc(C23CCN(Cc4nc5c(Cl)cc(C(=O)O)cc5n4C[C@@H]4CCO4)CC2C3)n1` (stereo partly drawn) [Compound 1-25, 4-chloro-2-((6-(6-((4-cyano-2-methoxybenzyl)oxy)pyridin-2-yl)-3-azabicyclo[4.1.0]heptan-3-yl)methyl)-1-(((S)-oxetan-2-yl)methyl)-1H-benzo[d]imidazole-6-carboxylic acid], in assay [1], the EC50 was 0.95 nM.
Turning to `COc1cc(C#N)ccc1COc1cccc(C23CCN(Cc4nc5c(C#N)cc(C(=O)O)cc5n4C[C@@H]4CCO4)CC2C3)n1` (stereo partly drawn) [Compound 1-17, 4-cyano-2-((6-(6-((4-cyano-2-methoxybenzyl)oxy)pyridin-2-yl)-3-azabicyclo[4.1.0]heptan-3-yl)methyl)-1-(((S)-oxetan-2-yl)methyl)-1H-benzo[d]imidazole-6-carboxylic acid], the EC50 in assay [1] was determined as 6.66 nM.
The same measure, in the same setting: the result for `C#Cc1ccc(COc2ccnc(C34CCN(Cc5nc6c(OC)cc(C(=O)O)cc6n5C[C@@H]5CCO5)CC3C4)n2)c(OC)c1` (stereo partly drawn) [Compound 1-49, 2-((6-(4-((4-ethynyl-2-methoxybenzyl)oxy)pyrimidin-2-yl)-3-azabicyclo[4.1.0]heptan-3-yl)methyl)-4-methoxy-1-(((S)-oxetan-2-yl)methyl)-1H-benzo[d]imidazole-6-carboxylic acid] reads 10.2 nM; that for `COc1cc(C#N)ccc1COc1cccc(C23CCN(Cc4nc5ccc(C(=O)O)cc5n4C[C@@H]4CCO4)CC2C3)n1` (single isomer, unassigned) [Compound 1-6-A], 5.55 nM; that for `CCOc1cc(C(=O)O)cc2c1nc(CN1CCC3(c4nccc(OCc5ccc(C#N)cc5OC)n4)CC3C1)n2C[C@@H]1CCO1` (stereo partly drawn) [Compound 1-41, 2-((6-(4-((4-cyano-2-methoxybenzyl)oxy)pyrimidin-2-yl)-3-azabicyclo[4.1.0]heptan-3-yl)methyl)-4-ethoxy-1-(((S)-oxetan-2-yl)methyl)-1H-benzo[d]imidazole-6-carboxylic acid], 0.34 nM.
Turning to `COc1cc(C#N)ccc1COc1nccc(C23CCN(Cc4nc5ccc(C(=O)O)cc5n4C[C@@H]4CCO4)CC2C3)n1` (stereo partly drawn) [Compound 1-27, 2-((6-(2-((4-cyano-2-methoxybenzyl)oxy)pyrimidin-4-yl)-3-azabicyclo[4.1.0]heptan-3-yl)methyl)-1-(((S)-oxetan-2-yl)methyl)-1H-benzo[d]imidazole-6-carboxylic acid], the EC50 in assay [1] amounted to 11.7 nM.
In the case of `COc1cc(Cl)ccc1COc1cccc(C23CCN(Cc4nc5ccc(C(=O)O)cc5n4C[C@@H]4CCO4)CC2C3)n1` (stereo partly drawn) [Compound 1-12, 2-((6-(6-((4-chloro-2-methoxybenzyl)oxy)pyridin-2-yl)-3-azabicyclo[4.1.0]heptan-3-yl)methyl)-1-(((S)-oxetan-2-yl)methyl)-1H-benzo[d]imidazole-6-carboxylic acid], the EC50 in assay [1] turned out to be 26.4 nM.
`CCn1cncc1Cn1c(CN2CCC3(c4cccc(OCc5ccc(C#N)cc5OC)n4)CC3C2)nc2ccc(C(=O)O)cc21` (centres unmarked) [Compound 1-44, 2-((6-(6-((4-cyano-2-methoxybenzyl)oxy)pyridin-2-yl)-3-azabicyclo[4.1.0]heptan-3-yl)methyl)-1-((1-ethyl-1H-imidazol-5-yl)methyl)-1H-benzo[d]imidazole-6-carboxylic acid]: the EC50 in assay [1] was determined as 0.3 nM.
Regarding `COc1cc(C(F)(F)F)ccc1COc1cccc(C23CCN(Cc4nc5ccc(C(=O)O)cc5n4C[C@@H]4CCO4)CC2C3)n1` (stereo partly drawn) [Compound 1-14, 2-((6-(6-((2-methoxy-4-(trifluoromethyl)benzyl)oxy)pyridin-2-yl)-3-azabicyclo[4.1.0]heptan-3-yl)methyl)-1-(((S)-oxetan-2-yl)methyl)-1H-benzo[d]imidazole-6-carboxylic acid], the EC50 in assay [1] is 17.4 nM.
Take `CCOc1cc(C#N)ccc1COc1ccnc(C23CCN(Cc4nc5c(OC)cc(C(=O)O)cc5n4C[C@@H]4CCO4)CC2C3)n1` (stereo partly drawn) [Compound 1-39, 2-((6-(4-((4-cyano-2-ethoxybenzyl)oxy)pyrimidin-2-yl)-3-azabicyclo[4.1.0]heptan-3-yl)methyl)-4-methoxy-1-(((S)-oxetan-2-yl)methyl)-1H-benzo[d]imidazole-6-carboxylic acid]: in assay [1], the EC50 came to 29 nM.
For `COc1cc(C#N)ccc1COc1nc(C23CCN(Cc4nc5c(OC)cc(C(=O)O)cc5n4C[C@@H]4CCO4)CC2C3)ncc1C` (stereo partly drawn) [Compound 1-33, 2-((6-(4-((4-cyano-2-methoxybenzyl)oxy)-5-methylpyrimidin-2-yl)-3-azabicyclo[4.1.0]heptan-3-yl)methyl)-4-methoxy-1-(((S)-oxetan-2-yl)methyl)-1H-benzo[d]imidazole-6-carboxylic acid], the EC50 in assay [1] is 105 nM.
Regarding `COCc1ccc(COc2cccc(C34CCN(Cc5nc6ccc(C(=O)O)cc6n5C[C@@H]5CCO5)CC3C4)n2)c(OC)c1` (stereo partly drawn) [Compound 1-15, 2-((6-(6-((2-methoxy-4-(methoxymethyl)benzyl)oxy)pyridin-2-yl)-3-azabicyclo[4.1.0]heptan-3-yl)methyl)-1-(((S)-oxetan-2-yl)methyl)-1H-benzo[d]imidazole-6-carboxylic acid], the EC50 in assay [1] is 439 nM.
With `COc1cc(C#N)ccc1COc1ccnc(C23CCN(Cc4nc5ccc(C(=O)O)cc5n4C[C@@H]4CCO4)CC2C3)n1` (single isomer, unassigned) [Compound 1-26-A], the EC50 in assay [1] was found to be 102 nM.
On the same count and under the same terms, for `COc1cc(C#N)ccc1COc1nc(C23CCN(Cc4nc5c(OC)cc(C(=O)O)cc5n4C[C@@H]4CCO4)CC2C3)ccc1OC` (stereo partly drawn) [Compound 1-30, 2-((6-(6-((4-cyano-2-methoxybenzyl)oxy)-5-methoxypyridin-2-yl)-3-azabicyclo[4.1.0]heptan-3-yl)methyl)-4-methoxy-1-(((S)-oxetan-2-yl)methyl)-1H-benzo[d]imidazole-6-carboxylic acid] the value was 28.1 nM.
Turning to `COc1cc(C#N)ccc1COc1ccnc(C23CCN(Cc4nc5c(OC)cc(C(=O)O)cc5n4C[C@@H]4CCO4)CC2C3)n1` (stereo partly drawn) [Compound 1-38, 2-((6-(4-((4-cyano-2-methoxybenzyl)oxy)pyrimidin-2-yl)-3-azabicyclo[4.1.0]heptan-3-yl)methyl)-4-methoxy-1-(((S)-oxetan-2-yl)methyl)-1H-benzo[d]imidazole-6-carboxylic acid], the EC50 in assay [1] worked out at 0.79 nM.
For the molecule `COc1cc(C#N)ccc1COc1cccc(C23CCN(Cc4nc5c(F)cc(C(=O)NS(C)(=O)=O)cc5n4C[C@@H]4CCO4)CC2C3)n1` (stereo partly drawn) [Compound 7-1, 2-((6-(6-((4-cyano-2-methoxybenzyl)oxy)pyridin-2-yl)-3-azabicyclo[4.1.0]heptan-3-yl)methyl)-4-fluoro-N-(methylsulfonyl)-1-(((S)-oxetan-2-yl)methyl)-1H-benzo[d]imidazole-6-carboxamide], in assay [1], the EC50 came out at 266 nM.
For `COc1cc(C#N)ccc1COc1nc(C23CCN(Cc4nc5c(OC)cc(C(=O)O)cc5n4C[C@@H]4CCO4)CC2C3)ccc1F` (stereo partly drawn) [Compound 1-28, 2-((6-(6-((4-cyano-2-methoxybenzyl)oxy)-5-fluoropyridin-2-yl)-3-azabicyclo[4.1.0]heptan-3-yl)methyl)-4-methoxy-1-(((S)-oxetan-2-yl)methyl)-1H-benzo[d]imidazole-6-carboxylic acid], in assay [1], the 50% effective concentration (EC50) was determined as 0.46 nM.
Still for that read-out and setting: for `COc1cc(C#N)ccc1COc1nc(C23CCN(Cc4nc5ccc(C(=O)O)cc5n4C[C@@H]4CCO4)CC2C3)ncc1F` (stereo partly drawn) [Compound 1-31, 2-((6-(4-((4-cyano-2-methoxybenzyl)oxy)-5-fluoropyrimidin-2-yl)-3-azabicyclo[4.1.0]heptan-3-yl)methyl)-1-(((S)-oxetan-2-yl)methyl)-1H-benzo[d]imidazole-6-carboxylic acid] the value was 132 nM.
